In the supplement of paper PMC11208160:

Experiment: recombinant barcode read abundance after kanamycin selection (control-corrected) (log10(CPM+1)); higher = more efficient recombination; sequences stand for … in AGTGCAGAGAAAATCGGCCAGTTTTCTCTGCCTGCAGTCCGCATGCCGT…AGATTTATGCAGCGGACTGCCTTTCTCCCAAAGTGATAAACCGGACAGTATCATGGACCGGTTTTCCCGGTAATCCGTATTTGCAAGGTTGGTTTCACT; site = the 11-nt target
Summary of the method: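 Targets and IS621 bridge RNA target-binding loops were paired in oligos, each with a promoter, a barcode and the J23119-driven first 104 bridge RNA bases. A vector carrying the remaining 73 bp and a T7-inducible recombinase received these by Gibson cloning, and the pool was co-electroporated into E. coli with a donor plasmid. Duplicate plates contained chloramphenicol/ampicillin LB agar (control) or chloramphenicol/ampicillin/kanamycin with 0.1 mM IPTG. Recombination efficiency comes from averaged, control-corrected counts per million of recombinant-junction barcodes, reported as log10(CPM+1).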
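Note: IS621 recombinase and bridge RNA in Escherichia coli cells.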

Sequence | recombinant barcode read abundance (log10)
GGGGCGTCTTGGGTTCTAACCTGTTGCTT (site GGGGCCTCTAA) | 0.0129
GTAGTACCTTGGGTTCTAACCTGTTGCCT (site GTAGTAGCTAG) | 0.247
TACCGGACTTGGGTTCTAACCTGTTGCGT (site TACCGGACTAC) | 2.13
TAGACTACTTGGGTTCTAACCTGTTGCTA (site TAGACTACTTA) | 0.268
AGGTCCTCTTGGGTTCTAACCTGTTGCGT (site AGGTCCTCTAG) | 0.73
TGGACTTCTTGGGTTCTAACCTGTTGCTT (site TGGACTTCTAA) | 0.0981
CGGCTACCTTGGGTTCTAACCTGTTGCCT (site CCGCTACCTAG) | 0.13
TCCAAGCCTTGGGTTCTAACCTGTTGCAG (site TCCAAGCCTCT) | 0.747
AGAACTCCTTGGGTTCTAACCTGTTGCGA (site CTGGAGACTAA) | 0.42
CTATTGTCTTGGGTTCTAACCTGTTGCGA (site CTATTGTCTCC) | 0.165
TTGCCGACTTGGGTTCTAACCTGTTGCCT (site TTGCCGACTAG) | 0.716
ACAGGGTCTTGGGTTCTAACCTGTTGCCT (site ACAGGGTCTAG) | 2.32
TCCCATACTTGGGTTCTAACCTGTTGCAT (site TCCCATACTAT) | 0.982
CTACGTCCTTGGGTTCTAACCTGTTGCTT (site CTACGTCCTAA) | 1.04
TAGAAGTCTTGGGTTCTAACCTGTTGCAG (site TAGATGTCTCC) | 0.0783
GTACGTCCTTGGGTTCTAACCTGTTGCTT (site GTACGTCCTAC) | 0.143
CTACCATCTTGGGTTCTAACCTGTTGCCT (site CTACCAACTAG) | 0.0518
AAGCGTACTTGGGTTCTAACCTGTTGCCT (site AAGCGTGCTAG) | 0.0421
AGGTTCCCTTGGGTTCTAACCTGTTGCTA (site AGGTTCCCTGA) | 0.0194
GGGTCCTCTTGGGTTCTAACCTGTTGCCG (site GGGTCCTCTTG) | 0.205
GGACGAGCTTGGGTTCTAACCTGTTGCTG (site ATCTATACTAG) | 0.0905
GGCGGTACTTGGGTTCTAACCTGTTGCCT (site GGCGGTACTAG) | 1.12

Sequence | recombinant barcode read abundance (log10)
TGACTACCTTGGGTTCTAACCTGTTGCCT (site TCGCTACCTAG) | 0.0696
GGAGATGCTTGGGTTCTAACCTGTTGCCT (site GGAGAGGCTAG) | 0.226
ACCCTAGCTTGGGTTCTAACCTGTTGCTC (site ACCCTAGCTGA) | 1.95
ACTCGATCTTGGGTTCTAACCTGTTGCCT (site ACTCGATCTAG) | 0.595
GCGTACCCTTGGGTTCTAACCTGTTGCCT (site GAGTACCCTAG) | 0.404
CGCGATCCTTGGGTTCTAACCTGTTGCGT (site CGCGATCCTAC) | 0.834
TGAAATGCTTGGGTTCTAACCTGTTGCCT (site TGAGATGCTAG) | 0.256
TCTAGAGCTTGGGTTCTAACCTGTTGCCT (site TCTAGACCTAG) | 0.228
GTATGTACTTGGGTTCTAACCTGTTGCAT (site GTATGATCTAT) | 0.206
TTAGACCCTTGGGTTCTAACCTGTTGCCT (site TTAGACCCTAG) | 2.99
TCGCGTCCTTGGGTTCTAACCTGTTGCCG (site ACGCGTCCTCG) | 0.116
TACCCATCTTGGGTTCTAACCTGTTGCCT (site TATCCATCTAG) | 0.0366
GGGGCGTCTTGGGTTCTAACCTGTTGCTT (site GGGGCGTCTAA) | 2.16
CGTCCTGCTTGGGTTCTAACCTGTTGCTT (site TAGGGGACTTT) | 0.0676
AGGGAAGCTTGGGTTCTAACCTGTTGCCT (site AGGGTAGCTAG) | 0.391
TTGAATCCTTGGGTTCTAACCTGTTGCCA (site TTGAATCCTTG) | 0.71
AGTTCTCCTTGGGTTCTAACCTGTTGCCT (site AGTTCTCCTAG) | 0.0504
GTATGTACTTGGGTTCTAACCTGTTGCAT (site GTATGTACTAT) | 0.435
CCAAGGCCTTGGGTTCTAACCTGTTGCCT (site TCAAGGCCTAG) | 0.0686
GGGGCACCTTGGGTTCTAACCTGTTGCCT (site GGGGCACCTAT) | 0.556
CTATGGACTTGGGTTCTAACCTGTTGCCT (site CTATGGACTAG) | 0.872
TACTATCCTTGGGTTCTAACCTGTTGCCT (site TACTATACTAG) | 0.0496

Sequence | recombinant barcode read abundance (log10)
AGGTTTGCTTGGGTTCTAACCTGTTGCCT (site AGGTGTGCTAG) | 0.018
CAATGGTCTTGGGTTCTAACCTGTTGCCT (site CAATGGTCTAC) | 0.0107
AGCTGGGCTTGGGTTCTAACCTGTTGCGG (site AGTTGGGCTCA) | 0.393
AAGACCTCTTGGGTTCTAACCTGTTGCCT (site AAGACCTCTAG) | 1.67
ATTTGGACTTGGGTTCTAACCTGTTGCCT (site ATTTGGACTAG) | 0.111
CTCTCGTCTTGGGTTCTAACCTGTTGCGT (site CTCTCGTCTAC) | 1.19
GGTCCACCTTGGGTTCTAACCTGTTGCCT (site AGTCCACCTAG) | 0.386
CCACCTTCTTGGGTTCTAACCTGTTGCCT (site AGTTGGCCTTC) | 0.161
AGGGAATCTTGGGTTCTAACCTGTTGCCT (site AGGGAATCTAG) | 1.04
AGGAACCCTTGGGTTCTAACCTGTTGCTC (site AGGAACCCTAA) | 0.19
CGAGCAACTTGGGTTCTAACCTGTTGCTT (site CGAGCAACTAA) | 0.0517
TGTCTAGCTTGGGTTCTAACCTGTTGCCT (site TGACTAGCTAG) | 0.486
TCCAACACTTGGGTTCTAACCTGTTGCGG (site TCCAAACCTCC) | 0.00935
GGGAACCCTTGGGTTCTAACCTGTTGCTC (site GGGAACCCTCA) | 0.659
CCTAGATCTTGGGTTCTAACCTGTTGCCT (site CCTAGATCTAG) | 0.372
CTCATAGCTTGGGTTCTAACCTGTTGCGA (site CTCATAGCTTC) | 1.06
GTGCTCGCTTGGGTTCTAACCTGTTGCCT (site CTGCCCGCTAG) | 0.0812
AAGCGTTCTTGGGTTCTAACCTGTTGCCT (site AAGCGTTCTAG) | 1.54
GTCTCGTCTTGGGTTCTAACCTGTTGCTT (site GTCTCGTCTAA) | 0.246
GTCAATCCTTGGGTTCTAACCTGTTGCGT (site GCCACTCCTAC) | 0.0762
AACAGTGCTTGGGTTCTAACCTGTTGCCT (site AACAATGCTAG) | 0.248
CGCGCTCCTTGGGTTCTAACCTGTTGCCT (site CGCGGTCCTAG) | 0.0941

Sequence | recombinant barcode read abundance (log10)
GGATCTACTTGGGTTCTAACCTGTTGCCT (site GCATCTACTAG) | 0.514
TCTCACGCTTGGGTTCTAACCTGTTGCCT (site TCGCACGCTAG) | 0.0772
GGAATGTCTTGGGTTCTAACCTGTTGCCT (site GAAATGTCTAG) | 0.344
TAATCGACTTGGGTTCTAACCTGTTGCCT (site TAATCGGCTAG) | 0
GTGCACACTTGGGTTCTAACCTGTTGCCA (site GTGCACACTTG) | 0.736
CGCCTCCCTTGGGTTCTAACCTGTTGCAT (site GGCCTCCCTAT) | 0
GGAGAACCTTGGGTTCTAACCTGTTGCCT (site TGAGAACCTAG) | 1.56
GGCACAGCTTGGGTTCTAACCTGTTGCCT (site GGCACAGCTAG) | 0
GACAGTACTTGGGTTCTAACCTGTTGCCT (site TACAGTACTAG) | 0.79
TGTAGTCCTTGGGTTCTAACCTGTTGCCT (site TGTAGTCCTAC) | 0.0647
CCTAAGACTTGGGTTCTAACCTGTTGCCC (site CCTAAGACTAG) | 0.23
TAGTTTGCTTGGGTTCTAACCTGTTGCGA (site TAGTTTGCTTC) | 0.171
CCTGGGACTTGGGTTCTAACCTGTTGCGC (site CCTGGGACTTC) | 0.214
ACTCGGCCTTGGGTTCTAACCTGTTGCCT (site ACTCGGCCTAG) | 1.45
AGCGTCGCTTGGGTTCTAACCTGTTGCCT (site AGCGTCGCTAG) | 1.45
CACTGATCTTGGGTTCTAACCTGTTGCCT (site CACTGTTCTAG) | 0.302
CTAAGAGCTTGGGTTCTAACCTGTTGCAG (site CTAAGAGCTCT) | 1.98
AGGTAGACTTGGGTTCTAACCTGTTGCCA (site AGGCAGACTTG) | 0.583
GAGTATTCTTGGGTTCTAACCTGTTGCCT (site GACTATTCTAG) | 0.0264
AGTCTAGCTTGGGTTCTAACCTGTTGCCT (site AGTCTAGCTGG) | 0.141
